Experimental data taken from patent US11840531B2, “CDK8/19 inhibitors” (JOINT STOCK COMPANY “BIOCAD”, priority 2018, dated 2023).
pIC50: −log10 of the molar value.

Assays:
[1] = Permeability through Caco-2 cell monolayer; type: in vitro ADME; settings: human; for Papp A→B at 2 h, 10 μM: Caco-2, A→B, pH 6.5/7.4, 2 hour incubation; for efflux ratio at 2 h, 10 μM: Caco-2, Papp B-A/Papp A-B
Procedure: Estimation of permeability through Caco-2 cell monolayer enables assessment of the ability of the substances to penetrate through biological membranes by means of both active and passive transport.
Intestinal epithelial cells Caco-2 were grown on filter inserts (pore size 0.4 jam, BD Falcon with High Density) for 21 days; monolayer integrity was then checked using Lucifer Yellow (Sigma-Aldrich, USA) according to the standard protocol. In A→B transfer (“intestinal lumen”-“blood stream” transfer), solutions of the test substances in buffer, pH 6.5 (HBSS, 10 mM HEPES, 15 mM glucose) at a concentration of 10 μM were added to the upper chamber; whereas the lower chamber was filled with buffer, pH 7.4 (HBSS, 10 mM HEPES, 15 mM Glucose, 1% BSA). In B→A transfer (“blood stream”-“intestinal lumen” transfer), the upper chamber was filled with buffer, pH 6.5, whereas the solutions of the test substances in buffer, pH 7.4, at a concentration of 10 μM were added to the lower chamber. A highly permeable substance propranolol was used as a control.
After 2 hour incubation at 37° C. under an atmosphere containing 5% CO2, the amounts of the test substances in the upper and lower chambers were measured by HPLC using an Agilent1200 HPLC system (Agilent, USA), proteins were preliminarily precipitated with acetonitrile. Chromatographic analysis was performed in a gradient elution regime with a flow rate of 1 mL/min. The peak areas corresponding to the compounds were detected on chromatograms. Based on the peak areas of a compound in the calibration standards, concentration of the compound in the initial solution and in the samples from upper chamber wells and lower chamber wells was measured.
Cellular permeability coefficient Papp was calculated by the formula: Papp=(Ca(t)*Va)/(Cd(0)*t*Area), where Papp is the effective permeability constant, m/s V is the volume of solution (0.8 ml in A→B test, 0.2 ml in B→A test), ml Area is the membrane surface area (0.33 cm^2), cm^2 t is the time of incubation (7200 sec), sec Cd(0) is the initial solution concentration, μM Ca(t) is the concentration of the solution after 2 hours (the concentration in the sample from the well of the lower chamber in A→B test; the concentration in the sample from the well of the top chamber in B→A test), μM
The value was calculated by the following formula: efflux=Papp B-A/Papp A-B, where Pape A-B-direct A→B test permeability value Papp B-A-reverse B→A test permeability value

KG-1 cells = assay: Antiproliferative activity, KG-1 cells (AlamarBlue); type: cell-based; settings: Homo sapiens, KG-1, 120 h, 120 h incubation
Procedure: Antiproliferative activity of CDK8 inhibitors according to the present invention was measured in a cell-based test on continuous cell cultures MV4-11 (biphenotypic myelomonocytic leukemia, ATCC® CRL-9591™), KG-1 (acute myeloid leukemia, ATCC® CCL-246™) using a vital stain AlamarBlue (ThermoFisher, #DAL1100). The cells were grown in RPMI-1640 (PanEco, #C330p) medium with addition of 10% FBS (Gibco, #16140-071); washed and resuspended in culture medium with 10% FBS (Gibco, #16140-071) in 96-well culture plates (Corning, #3599) with ≈10×10^3 cells in […] of medium per well. The compounds in question were dissolved in DMSO and diluted with a medium with 10% FBS (Gibco, #16140-071) to a final concentration ranging from 0 to 100 μM. […] of diluted compounds were then added to each well (final DMSO concentration was less than 1%) and incubated under 5% CO2 atmosphere at 37° C. for 120 h. After incubating, 15 μL/well of AlamarBlue (ThermoFisher, #DAL1100) reagent was added, contents of plates were mixed in an orbital shaker (Biosan, Latvia) and further incubated for 3-5 h at 37° C. under 5% CO2 atmosphere. Number of living cells was estimated using a microplate spectrophotometer (Tecan Infinite M200Pro, Switzerland) measuring fluorescent signal at the excitation wavelength (λEx) of 540 nm and emission wavelength (λEm) of 590 nm.
IC50 values were calculated using Magellan 7.2 software (Tecan, Switzerland) approximating experimental points by four-parameter logistic model with the optimization by Levenberg-Marquardt (Table 6).

[2] = General cytotoxicity on HepG2 cells; type: cell-based; settings: human, 72 h incubation
Procedure: The CC50 values were determined in the test for General cytotoxicity On HepG2 cells (hepatocellular carcinoma, ATCC® HB-8065™). Cells per well were seeded in 96-well plates (Corning, #3599) at a concentration ≈20×10^3 cells in 100 μL of medium and incubated for 72 h with added compounds within the range of concentrations of 200 to 0.78 μM. Cell viability was assessed using the above method.

[3] = Enzyme stability in human liver microsomes (Phase I); type: in vitro ADME; settings: pH 7.4; 0.5 mg/mL pooled human liver microsomes, 10 μM compound, 37° C.
Procedure: Measuring of enzyme stability of the present compounds enabled estimation of their stability towards the action of Phase I biotransformation enzymes.
The rate of enzymatic decomposition of a compound was detected by incubating the reaction mixture in a dry block heater at 37° C.; the reaction mixture contained 0.5 mg/mL of pooled human liver microsomes (XenoTech, USA, cat #H6010), 10 μM of a compound, 2 mM β-nicotinamide adenine dinucleotide (Carbosynth, UK, cat #NN10871) and 4 mM of magnesium chloride in 0.1M sodium phosphate buffer (pH=7.4). The reaction was quenched with acetonitrile (100 μL of acetonitrile/100 μL of the reaction mixture). After quenching, the samples were centrifuged at 10000 rpm for 10 minutes. Supernatant fluid was tested by chromatographic technique using Agilent1200 (Agilent, USA). Chromatographic analysis was performed in a gradient elution regime with a flow rate of 1 mL/min. A graph of the logarithm of substance's peak area as a function of time was made. The dependent factor of the line corresponded to the elimination rate constant K based on which the drug's half-lif½e T and degradation rate CLint were calculated:
Based on the data obtained, candidates' enzyme stability in human liver microsomes was determined.

[4] = Stability of the compounds in human blood plasma; type: in vitro ADME; settings: pooled human blood plasma, 10 μM, 4 hours at 37° C.
Procedure: To assess the blood plasma stability of the compounds, we used pooled human blood plasma taken from ten healthy donors. The initial candidate solution (10 mM in DMSO) was diluted with pooled blood plasma to a concentration of 10 μm (test solution). The test solution was incubated in a dry block thermostat for 4 hours at 37° C. HPLC with Agilent 1200 liquid chromatography system (Agilent, USA) was employed to determine peak areas of the compounds in test samples, said peak areas corresponding to the initial test time (prior to incubation) and the final test time (after incubation in a dry block thermostat for 4 hours at 37° C.), proteins were preliminarily precipitated with acetonitrile. Chromatographic analysis was performed in a gradient elution regime with a flow rate of 1 mL/min Substance amount in % in a sample after thermostatting was determined.
The stability of the compounds was estimated. The compounds described herein show at least 90% chemical stability, i.e. they are chemically stable in human blood plasma (Table 2).

| Papp A→B at 2 h, 10 μM [1] [×10⁻⁶ cm/s] | efflux ratio at 2 h, 10 μM [1] | microsomal CLint at 10 μM [3] [µL/min/mg] | Chemical stability in human blood plasma 4 h, % [4] [%] | SMILES | pIC50 (KG-1 cells) | CC50 at 72 h [2] [µM] |
| --- | --- | --- | --- | --- | --- | --- |
| 34.5 | 0.37 | 39.6 | 91.2 | COCCn1cc(-c2ccc(-c3cnc(N)c4ncc(C(=O)NCC5CC5)cc34)cc2)cn1 [Compound 3.45, 8-amino-N-(cyclopropylmethyl)-5-(4-(1-(2-methoxyethyl)-1H-pyrazole-4-yl)phenyl)-1,7-naphthyridine-3-carboxamide] | 10.00 | 17.4 |
| 36.2 | 0.64 | 18 | 98.4 | COCCn1cc(-c2ccc(-c3cnc(N)c4ncc(C(=O)NC5CC5)cc34)cc2)cn1 [Compound 3.48] | 8.57 | 31.8 |
| 18.7 | 1.66 | 7 | 100.0 | CN(C)C(=O)Cn1cc(-c2ccc(-c3cnc(N)c4ncc(C(=O)N5CCC5)cc34)cc2)cn1 [Compound 3.52, 2-(4-(4-(8-amino-3-(azetidine-1-carbonyl)-1,7-naphthyridine-5-yl)phenyl)-1H-pyrazole-1-yl)-N,N-dimethylacetamide] | 8.92 | > 100 |
